Target: Nitric oxide synthase 1 (Homo sapiens, UniProt P29475)
Sequence (P29475 whole entry): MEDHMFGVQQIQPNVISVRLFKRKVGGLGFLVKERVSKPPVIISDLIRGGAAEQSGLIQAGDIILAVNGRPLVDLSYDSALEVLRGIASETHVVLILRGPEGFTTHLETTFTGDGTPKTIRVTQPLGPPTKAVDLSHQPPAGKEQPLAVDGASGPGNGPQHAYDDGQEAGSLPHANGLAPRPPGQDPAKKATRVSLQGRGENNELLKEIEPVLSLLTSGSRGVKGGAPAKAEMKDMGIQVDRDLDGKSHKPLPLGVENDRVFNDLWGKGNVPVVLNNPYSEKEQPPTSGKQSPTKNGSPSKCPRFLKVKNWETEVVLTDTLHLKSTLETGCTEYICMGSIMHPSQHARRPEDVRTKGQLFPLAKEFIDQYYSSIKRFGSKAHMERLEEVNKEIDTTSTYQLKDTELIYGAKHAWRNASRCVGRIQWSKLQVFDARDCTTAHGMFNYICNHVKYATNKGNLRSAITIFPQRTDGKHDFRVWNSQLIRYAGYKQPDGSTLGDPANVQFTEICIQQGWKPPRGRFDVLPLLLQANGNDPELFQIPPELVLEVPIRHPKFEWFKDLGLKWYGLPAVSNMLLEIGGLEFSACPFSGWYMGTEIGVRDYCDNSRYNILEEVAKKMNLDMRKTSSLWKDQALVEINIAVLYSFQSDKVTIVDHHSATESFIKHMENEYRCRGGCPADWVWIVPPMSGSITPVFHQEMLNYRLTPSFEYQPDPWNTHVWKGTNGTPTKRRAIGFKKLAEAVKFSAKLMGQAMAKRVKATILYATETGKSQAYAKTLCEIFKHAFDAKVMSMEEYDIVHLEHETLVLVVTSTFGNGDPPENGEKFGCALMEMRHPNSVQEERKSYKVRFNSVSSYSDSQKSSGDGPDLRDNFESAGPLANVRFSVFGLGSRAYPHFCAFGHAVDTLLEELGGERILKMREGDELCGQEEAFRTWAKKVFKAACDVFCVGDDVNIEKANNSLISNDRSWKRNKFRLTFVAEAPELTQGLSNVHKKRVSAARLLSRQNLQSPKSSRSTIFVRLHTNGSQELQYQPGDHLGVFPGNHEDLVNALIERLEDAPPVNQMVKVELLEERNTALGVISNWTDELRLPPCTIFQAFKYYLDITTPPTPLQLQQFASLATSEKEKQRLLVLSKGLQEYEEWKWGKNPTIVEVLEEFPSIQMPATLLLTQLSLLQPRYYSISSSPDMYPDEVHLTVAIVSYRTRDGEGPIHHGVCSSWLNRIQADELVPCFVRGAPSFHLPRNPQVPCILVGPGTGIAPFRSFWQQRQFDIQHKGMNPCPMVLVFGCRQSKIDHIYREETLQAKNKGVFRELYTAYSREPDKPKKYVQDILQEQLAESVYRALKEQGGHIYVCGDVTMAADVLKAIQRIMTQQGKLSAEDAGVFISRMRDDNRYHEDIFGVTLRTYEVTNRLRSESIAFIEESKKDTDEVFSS

- Ki: 0.029 µM
Compound: Cc1cc(N)nc(CCc2cc(CCCN(C)C)cc(F)c2F)c1

Source: ChEMBL document CHEMBL4400558, “Optimization of Blood-Brain Barrier Permeability with Potent and Selective Human Neuronal Nitric Oxide Synthase Inhibitors Having a 2-Aminopyridine Scaffold” (J Med Chem, 2019)
